Laboratory results taken from US9593149B2, “Amylin and calcitonin receptor agonist” (Novo Nordisk A/S, priority 2014, dated 2017).
Peptide text beside a SMILES is read from it. * marks the point of attachment. C18 diacid = O=C(O)CCCCCCCCCCCCCCCCC(=O)*

How the values were obtained:
[1] = Assay (IX) pK, T½ in mini-pig; format: in vivo, Göttingen mini-pigs; conditions: i.v.
How it was run: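 Female Göttingen mini-pigs (5–12 months, 15–35 kg, fed freely) received a single i.v. dose of approximately 5 nmol/kg via central venous catheter, typically n=3. Plasma was sampled from pre-dose to 240 h (sometimes 288 h) and quantified by LC-MS. T½ was derived by non-compartmental analysis from the terminal log-linear slope (ln2/λz).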

Assay (X) pK, T½ in rat = format: in vivo, Sprague Dawley rats
Protocol: Assay (X)—pK—Determination of T½ in Rat
Pharmacokinetic (PK) studies rats were conducted in order to determine the T½ of mimylin peptide after i.v. and s.c. administration.
T½ values of the mimylin derivates of the invention is determined by pharmacokinetic studies in Sprague Dawley male rats, from Taconic Europe and the principles of laboratory animal care are followed.
An acclimatisation period of approximately 7 days was allowed before the animals entered the study. At start of the acclimatisation period the rats were in the weight range of 250-400 g.
The studies were conducted in an animal room which was illuminated to give a cycle of approximately 12 hours light and 12 hours darkness. The animals were group housed and had food and water ad lib. The animals were weighed on the days of dosing.
In the present studies the test substances were administered subcutaneously or intravenously in approximately 20 nmol/kg dose. The animals received a single subcutaneous injection to the neck for subtaneous administration or directly into the tail vein for intravenous administration. Each test substance was given to typically three but in some cases two or four animals.
A full plasma concentration-time profile, employing 8-10 sampling points, was obtained from each animal. In example blood samples were collected according to the following schedule: After subcutaneous or intravenous administration:
At each sampling time, 0.08 to 0.10 ml of blood was drawn from each animal. The blood samples were taken in the sublingual vein via venous puncture and the use of a capillary tube.
The blood samples were stabilised with EDTA. Blood samples were kept on ice for max 20 min. before centrifugation. Plasma was separated using centrifugation (i.e. at 4° C., 10 min., 1500G) and was immediately transferred to Micronic tubes or PCR plates. Approximately 40 μl plasma was transferred and was stored at −20° C. until assayed. The plasma samples were assayed for the content of mimylin compound by LCMS
The plasma concentration-time profiles were analysed by a non-compartmental pharmacokinetic analysis (NCA) using Phoenix WinNonlin 6.3 (Pharsight Inc., Mountain View, Calif., USA). NCA was performed using the individual plasma concentration-time profiles from each animal. T½ is the terminal half-life=In2/λz and was determined from λz, the first order rate constant associated with the terminal (log-linear) portion of the curve, estimated by linear regression of time vs. log concentration.

PK mini pig iv T½ [1]: 85 h
PK rat iv T½ (Assay (X) pK, T½ in rat; i.v.): 12 h
PK rat sc T½ (Assay (X) pK, T½ in rat; s.c.): 13 h
Compound: CC(C)C[C@H](NC(=O)[C@H](C)NC(=O)[C@H](C)NC(=O)[C@@H](NC(=O)[C@H](CO)NC(=O)[C@H](CC(C)C)NC(=O)[C@H](CCC(=O)O)NC(=O)[C@H](CO)NC(=O)[C@H](C)NC(=O)[C@H](CCC(=O)O)NC(=O)CCCCCCCCCCCCCCCCC(=O)O)[C@@H](C)O)C(=O)NCC(=O)N[C@@H](CCCNC(=N)N)C(=O)N[C@@H](CC(C)C)C(=O)N[C@@H](CO)C(=O)N[C@@H](C)C(=O)N[C@@H](CCC(=O)O)C(=O)N[C@@H](CC(C)C)C(=O)N[C@@H](Cc1cnc[nH]1)C(=O)N[C@@H](CCC(=O)O)C(=O)N[C@@H](CC(C)C)C(=O)N[C@@H](C)C(=O)N[C@H](C(=O)N[C@@H](CC(C)C)C(=O)N1CCC[C@H]1C(=O)N[C@@H](CCCNC(=N)N)C(=O)N[C@H](C(=O)N[C@@H](CCC(=O)O)C(=O)N[C@H](C(=O)NCC(=O)N1CCC[C@H]1C(=O)N[C@@H](CCC(=O)O)C(=O)N[C@@H](CO)C(=O)N1CCC[C@H]1C(N)=O)[C@@H](C)O)[C@@H](C)O)[C@@H](C)O [Ex. #2, [N-terminal(C18 diacid)]mimylin] ({C18 diacid}-EASELSTAALGRLSAELHELATLPRTETGPESP-NH2)
